Results taken from patent US9676782B2, “Substituted pyrazolo[1,5-a]pyrazines as negative allosteric modulators of metabotropic glutamate receptor 3” (Vanderbilt University, priority 2014, dated 2017).
Read-outs that look alike come from different tables or passages of the source.

Key:
rat mGlu5 = rat mGlu5 (Rattus norvegicus (Rat), UniProt P31424); test: mGlu5 Ca2+ flux assay; type: cell-based; details: for Fold selectivity (mGlu3 vs. mGlu5): ratio of rat mGlu5 EC50 or IC50 to rat mGlu3 IC50; for Emax at 30 µM: read-out: rat mGlu5 Glu max (%); for IC50: glutamate EC80; for mGlu5 Glu max: response at 30 μM compound as percentage of maximal glutamate response
Chain of rat mGlu5 (P31424 21-1203): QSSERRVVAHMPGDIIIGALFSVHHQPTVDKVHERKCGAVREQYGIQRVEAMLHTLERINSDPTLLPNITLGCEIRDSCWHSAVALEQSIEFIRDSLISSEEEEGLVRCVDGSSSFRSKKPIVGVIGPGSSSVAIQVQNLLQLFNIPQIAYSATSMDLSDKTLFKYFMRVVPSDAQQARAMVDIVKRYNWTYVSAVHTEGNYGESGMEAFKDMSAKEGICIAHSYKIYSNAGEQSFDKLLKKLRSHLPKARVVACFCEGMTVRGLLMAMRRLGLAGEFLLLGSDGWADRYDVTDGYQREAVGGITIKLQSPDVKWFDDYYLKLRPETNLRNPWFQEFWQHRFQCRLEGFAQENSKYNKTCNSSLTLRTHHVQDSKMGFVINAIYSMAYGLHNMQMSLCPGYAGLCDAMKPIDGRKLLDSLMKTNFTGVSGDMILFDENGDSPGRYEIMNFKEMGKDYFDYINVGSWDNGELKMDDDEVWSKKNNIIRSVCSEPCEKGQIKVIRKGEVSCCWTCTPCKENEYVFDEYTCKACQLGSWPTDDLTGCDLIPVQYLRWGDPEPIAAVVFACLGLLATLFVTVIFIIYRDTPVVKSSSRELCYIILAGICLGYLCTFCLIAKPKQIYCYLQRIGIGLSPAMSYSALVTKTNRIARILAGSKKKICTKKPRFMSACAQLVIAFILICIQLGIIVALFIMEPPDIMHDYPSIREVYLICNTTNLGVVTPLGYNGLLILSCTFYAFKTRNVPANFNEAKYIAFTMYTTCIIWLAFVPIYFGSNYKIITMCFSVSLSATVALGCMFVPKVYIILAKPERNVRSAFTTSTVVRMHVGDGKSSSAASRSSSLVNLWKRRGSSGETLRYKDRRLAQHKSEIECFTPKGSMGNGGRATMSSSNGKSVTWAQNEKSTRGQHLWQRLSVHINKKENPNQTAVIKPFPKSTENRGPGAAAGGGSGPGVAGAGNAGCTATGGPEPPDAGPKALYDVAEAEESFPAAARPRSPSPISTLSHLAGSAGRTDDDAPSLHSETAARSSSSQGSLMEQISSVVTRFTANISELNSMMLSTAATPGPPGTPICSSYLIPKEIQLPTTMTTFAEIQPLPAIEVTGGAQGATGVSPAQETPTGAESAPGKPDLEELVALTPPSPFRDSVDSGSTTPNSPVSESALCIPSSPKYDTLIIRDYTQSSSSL
Summary of the method: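 Transfected cells grown overnight at 37° C/5% CO2, dye-loaded, then 5 min in assay buffer at RT before Ca2+ flux read on FDSS7000. Fluorescence as F/F0 fold over basal, normalized to maximal glutamate response; EC50 from unconstrained 4-parameter logistic fit, triplicates weighted evenly.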

rat mGlu3 = rat mGlu3 (Rattus norvegicus (Rat), UniProt P31422); test: mGlu3 Ca2+ flux assay; type: cell-based; details: for remaining activity at 30 µM: amplitude of response at 30 μM test compound as % of maximal response to glutamate, read-out: rat mGlu3 Glu max (%); for mGlu3 Glu max: response at 30 μM compound as percentage of maximal glutamate response
Chain of rat mGlu3 (P31422 23-879): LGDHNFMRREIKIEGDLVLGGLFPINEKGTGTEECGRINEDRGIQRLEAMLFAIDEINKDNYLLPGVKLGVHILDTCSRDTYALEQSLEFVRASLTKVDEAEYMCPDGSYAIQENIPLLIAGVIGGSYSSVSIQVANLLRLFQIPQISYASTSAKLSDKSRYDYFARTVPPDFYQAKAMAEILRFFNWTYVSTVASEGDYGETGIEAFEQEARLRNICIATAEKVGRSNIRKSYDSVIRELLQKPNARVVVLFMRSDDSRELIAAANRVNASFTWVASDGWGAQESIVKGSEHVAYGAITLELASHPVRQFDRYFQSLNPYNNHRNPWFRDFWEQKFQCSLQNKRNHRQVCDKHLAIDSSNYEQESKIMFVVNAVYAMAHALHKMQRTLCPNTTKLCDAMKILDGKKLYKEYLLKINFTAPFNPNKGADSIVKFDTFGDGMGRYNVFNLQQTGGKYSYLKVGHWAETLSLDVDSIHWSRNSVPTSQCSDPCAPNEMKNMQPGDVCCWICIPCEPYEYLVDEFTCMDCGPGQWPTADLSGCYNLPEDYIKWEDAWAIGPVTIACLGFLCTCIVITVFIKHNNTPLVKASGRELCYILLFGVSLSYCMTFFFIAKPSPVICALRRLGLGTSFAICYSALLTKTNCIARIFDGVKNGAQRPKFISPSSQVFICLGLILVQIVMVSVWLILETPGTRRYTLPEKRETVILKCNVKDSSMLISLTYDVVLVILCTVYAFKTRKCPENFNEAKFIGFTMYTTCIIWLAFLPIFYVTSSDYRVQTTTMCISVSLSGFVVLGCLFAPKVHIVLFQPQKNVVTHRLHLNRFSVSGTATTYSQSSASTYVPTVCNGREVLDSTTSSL
Summary of the method: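 Cells expressing rat mGlu3 were grown overnight at 37° C. under 5% CO2, then loaded with dye. After dye removal they received 20 μL of assay buffer and sat 10 minutes at room temperature. Calcium flux was read on a Hamamatsu FDSS7000, and fluorescence was expressed as fold over basal and normalized to the maximal glutamate response.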

[1] = read-out: rat mGlu5 EC50 or IC50
[2] = NAM potency, decrease of glutamate EC80 response, >30,000 = no measurable activity, >10,000 = no plateau, read-out: rat mGlu3 IC50
[3] = PAM, amplitude of response at 30 μM test compound as % of maximal response to glutamate
[4] = compound noted as NAM or partial antagonist (PAnt) at mGlu5, read-out: rat mGlu5 EC50 or IC50
[5] = compound noted as NAM or partial antagonist (PAnt) at mGlu5, response at 30 μM as % of maximal glutamate response
[6] = Table 2 compounds with X = O, read-out: mGlu5 EC50
[7] = Table 2 compounds with X = O, read-out: mGlu3 IC50

Structure (SMILES) | Fold selectivity (mGlu3 vs. mGlu5) (rat mGlu5) | EC50 (rat mGlu5; [1]) [µM] | IC50 (rat mGlu3; [2]) [µM] | remaining activity at 30 µM (rat mGlu3) [%] | Emax at 30 µM (rat mGlu5; [3]) [%] | IC50 (rat mGlu5; [4]) [µM] | Emax at 30 µM (rat mGlu5; [5]) [%] | EC50 (rat mGlu5; [6]) [µM] | mGlu5 Glu max (rat mGlu5; Table 2 compounds with X = O) [%] | IC50 (rat mGlu3; [7]) [µM] | mGlu3 Glu max (rat mGlu3; Table 2 compounds with X = O) [%] | IC50 (rat mGlu3; read-out: rat mGlu3 IC50) [µM]
COc1ccc(N(C)Cc2cc3n(n2)CCN(c2ccccc2OC)C3=O)cc1 [Compound 119, 5-(2-methoxyphenyl)-2-(((4-methoxyphenyl)(methyl)amino)methyl)-6,7-dihydropyrazolo[1,5-a]pyrazin-4(5H)-one] | >9.1 | > 30 | 3.28 | 1.3 |  |  |  |  |  |  |  | 
O=C1c2cc(CNc3ccccc3Cl)nn2CCN1c1ccc(F)cc1 [Compound 5, 2-(((2-chlorophenyl)amino)methyl)-5-(4-fluorophenyl)-6,7-dihydropyrazolo[1,5-a]pyrazin-4(5H)-one] | 1.72 | 2.19 | 1.27 | 2.08 | 65.4 |  |  |  |  |  |  | 
CC(Nc1ccc(Cl)cc1)c1cc2n(n1)CCN(c1ccc(F)cc1)C2=O (stereo not shown) [Compound 172, 2-(1-((4-chlorophenyl)amino)ethyl)-5-(4-fluorophenyl)-6,7-dihydropyrazolo[1,5-a]pyrazin-4(5H)-one] | >19 | > 30 | 1.55 | 1.29 |  |  |  |  |  |  |  | 
O=C1c2cc(CNc3ccc(OC(F)F)cc3F)nn2CCN1c1cccc(F)c1 [Compound 95, 2-(((4-(Difluoromethoxy)-2-fluorophenyl)amino)methyl)-5-(3-fluorophenyl)-6,7-dihydropyrazolo[1,5-a]pyrazin-4(5H)-one] | >17 | > 10 | 0.588 | 3.43 | 31.1 |  |  |  |  |  |  | 
CN(Cc1cc2n(n1)CCN(c1ccc(F)cc1)C2=O)c1cccc(Cl)c1 [Compound 87, 2-(((3-chlorophenyl)(methyl)amino)methyl)-5-(4-fluorophenyl)-6,7-dihydropyrazolo[1,5-a]pyrazin-4(5H)-one] | >12 | > 10 | 0.805 | 0.71 | 41.9 |  |  |  |  |  |  | 
COc1ccc(N(C)Cc2cc3n(n2)CCN(c2ccc(F)c(Cl)c2)C3=O)cc1 [Compound 133, 5-(3-chloro-4-fluorophenyl)-2-(((4-methoxyphenyl)(methyl)amino)methyl)-6,7-dihydropyrazolo[1,5-a]pyrazin-4(5H)-one] | >24 | > 30 | 1.21 | 2.13 |  |  |  |  |  |  |  | 
COc1ccc(N(C)Cc2cc3n(n2)CCN(c2cccc(C)c2)C3=O)cc1 [Compound 103, 2-(((4-methoxyphenyl)(methyl)amino)methyl)-5-(m-tolyl)-6,7-dihydropyrazolo[1,5-a]pyrazin-4(5H)-one] | >37 | > 30 | 0.805 | 1.16 |  |  |  |  |  |  |  | 
COc1ccc(N(C)Cc2cc3n(n2)CCN(c2ccc(F)cc2Cl)C3=O)cc1 [Compound 130, 5-(2-chloro-4-fluorophenyl)-2-(((4-methoxyphenyl)(methyl)amino)methyl)-6,7-dihydropyrazolo[1,5-a]pyrazin-4(5H)-one] | >15 | > 30 | 1.95 | 2.05 |  |  |  |  |  |  |  | 
O=C1c2cc(CNc3ccc(Cl)cn3)nn2CCN1c1ccc(F)cc1 [Compound 158, 2-(((5-chloropyridin-2-yl)amino)methyl)-5-(4-fluorophenyl)-6,7-dihydropyrazolo[1,5-a]pyrazin-4(5H)-one] | 4.02 |  | 0.602 | 1.27 |  | 2.42 | 73.6 |  |  |  |  | 
COc1ccc(NCc2cc3n(n2)CCN(c2ccc(F)cc2)C3=O)cc1 [Compound 17, 5-(4-fluorophenyl)-2-(((4-methoxyphenyl)amino)methyl)-6,7-dihydropyrazolo[1,5-a]pyrazin-4(5H)-one] | >14 | > 30 | 2.12 | 1.55 |  |  |  |  |  |  |  | 
O=C1c2cc(COc3ccccc3)nn2CCN1c1ccc(F)cc1 [drawing 29 X = O, reference compound] |  |  |  |  |  |  |  | 0.044 | 79 | 0.278 | 2 | 
Cc1cccc(NCc2cc3n(n2)CCN(c2ccc(F)cc2)C3=O)c1 [Compound 8, 5-(4-fluorophenyl)-2-((m-tolylamino)methyl)-6,7-dihydropyrazolo[1,5-a]pyrazin-4(5H)-one] | 4.41 | 5.96 | 1.35 | 2.85 | 79.4 |  |  |  |  |  |  | 
O=C1c2cc(CNc3ccc(OC(F)F)cc3F)nn2CCN1c1cccc(Cl)c1 [Compound 150, 5-(3-chlorophenyl)-2-(((4-(difluoromethoxy)-2-fluorophenyl)amino)methyl)-6,7-dihydropyrazolo[1,5-a]pyrazin-4(5H)-one] | >21 | > 30 | 1.39 | 2.97 |  |  |  |  |  |  |  | 
O=C1c2cc(CNc3ccc(F)cc3F)nn2CCN1c1ccc(F)cc1 [Compound 28, 2-(((2,4-difluorophenyl)amino)methyl)-5-(4-fluorophenyl)-6,7-dihydropyrazolo[1,5-a]pyrazin-4(5H)-one] | 1.21 | 1.51 | 1.25 | 1.76 | 80.6 |  |  |  |  |  |  | 
COc1ccc(N(C)Cc2cc3n(n2)CCN(c2ccc(C#N)cc2)C3=O)cc1 [Compound 118, 4-(2-(((4-methoxyphenyl)(methyl)amino)methyl)-4-oxo-6,7-dihydropyrazolo[1,5-a]pyrazin-5(4H)-yl)benzonitrile] | >15 | > 30 | 1.97 | 1.63 |  |  |  |  |  |  |  | 
C[C@@H]1CN(c2ccc(F)cc2)C(=O)c2cc(CNc3cccc(OC(F)F)c3)nn21 [Compound 54, (R)-2-(((3-(difluoromethoxy)phenyl)amino)methyl)-5-(4-fluorophenyl)-7-methyl-6,7-dihydropyrazolo[1,5-a]pyrazin-4(5H)-one] | >4.9 |  | 2.04 | 3.56 |  | > 10 | 36 |  |  |  |  | 
O=C1c2cc(COc3ccccc3F)nn2CCN1c1ccc(F)cc1 [drawing 30 X = O, reference compound] |  |  |  |  |  |  |  | 0.147 | 61 | 0.264 | 2 | 
COc1ccc(N(C)Cc2cc3n(n2)CCN(c2csc(C)n2)C3=O)cc1 [Compound 115, 2-(((4-methoxyphenyl)(methyl)amino)methyl)-5-(2-methylthiazol-4-yl)-6,7-dihydropyrazolo[1,5-a]pyrazin-4(5H)-one] | >18 | > 30 | 1.62 | 3.88 |  |  |  |  |  |  |  | 
COc1cccc(NCc2cc3n(n2)[C@@H](C)CN(c2ccc(F)cc2)C3=O)c1 [Compound 53, (S)-5-(4-fluorophenyl)-2-(((3-methoxyphenyl)amino)methyl)-7-methyl-6,7-dihydropyrazolo[1,5-a]pyrazin-4(5H)-one] | >3.0 | > 30 | 10 | 8.62 |  |  |  |  |  |  |  | 
COc1ccc(N(C)Cc2cc3n(n2)CCN(c2ccc(C)cc2)C3=O)cc1 [Compound 99, 2-(((4-methoxyphenyl)(methyl)amino)methyl)-5-(p-tolyl)-6,7-dihydropyrazolo[1,5-a]pyrazin-4(5H)-one] | >44 | > 30 | 0.675 | 1.2 |  |  |  |  |  |  |  | 
O=C1c2cc(CNc3ccc(OC(F)(F)F)cc3)nn2CCN1c1ccc(F)cc1 [Compound 21, 5-(4-fluorophenyl)-2-(((4-(trifluoromethoxy)phenyl)amino)methyl)-6,7-dihydropyrazolo[1,5-a]pyrazin-4(5H)-one] | >3 | > 30 |  | 13.3 |  |  |  |  |  |  |  | > 10
